Data published in PubChem BioAssay (NCI).
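In this assay, cells in 96-well plates receive the compound at five concentrations for 48 hours. Endpoints are linearly interpolated between the surrounding concentrations. Abbreviation: GI50, concentration required for 50% inhibition of growth. At the TGI there is no net growth.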

Tests used:
Experiment in all cases: NCI tumour cell line growth inhibition, 48 h
[1] = system: K-562 leukemia
[2] = system: HCT-116 colon
[3] = system: MOLT-4 leukemia
[4] = system: SF-295 CNS
[5] = system: U251 CNS
[6] = system: OVCAR-8 ovarian
[7] = system: SNB-19 CNS
[8] = system: SK-OV-3 ovarian
[9] = system: NCI-H522 lung
[10] = system: SNB-75 CNS
[11] = system: SN12C renal
[12] = system: SK-MEL-5 melanoma
[13] = system: HT29 colon
[14] = system: KM12 colon
[15] = system: DLD-1 colon
[16] = system: UACC-257 melanoma
[17] = system: SK-MEL-28 melanoma
[18] = system: SK-MEL-2 melanoma
[19] = system: KM20L2 colon
[20] = system: HL-60(TB) leukemia
[21] = system: UACC-62 melanoma
[22] = system: A549 NSCLC
[23] = system: NCI-H460 lung
[24] = system: OVCAR-5 ovarian
[25] = system: LOX IMVI melanoma
[26] = system: HCC-2998 colon
[27] = system: UO-31 renal
[28] = system: OVCAR-4 ovarian
[29] = system: A498 renal
[30] = system: SF-539 CNS
[31] = system: ACHN renal
[32] = system: COLO 205 colon
[33] = system: OVCAR-3 ovarian
[34] = system: 786-0 renal
[35] = system: HCT-15 colon
[36] = system: EKVX NSCLC
[37] = system: NCI-H226 lung
[38] = system: RPMI-8226 leukemia
[39] = system: MALME-3M melanoma
[40] = system: SF-268 CNS
[41] = system: HOP-62 NSCLC
[42] = system: CCRF-CEM leukemia
[43] = system: IGROV1 ovarian
[44] = system: LXFL 529 NSCLC
[45] = system: M14 melanoma
[46] = system: SW-620 colon
[47] = system: RXF 393 renal
[48] = system: NCI-H23 lung
[49] = system: HOP-18 NSCLC
[50] = system: CAKI-1 renal
[51] = system: DMS 114 small cell lung
[52] = system: SR leukemia
[53] = system: XF 498 CNS
[54] = system: DMS 273 small cell lung
[55] = system: SNB-78 CNS
[56] = system: TK-10 renal
[57] = system: M19-MEL melanoma
[58] = system: HOP-92 NSCLC

For `CC(=O)[CH-]C(=O)c1ccccc1.CC(=O)[CH-]C(=O)c1ccccc1.Cc1cc([O-])ccc1Cl.Cc1cc([O-])ccc1Cl.[Ti+4]`, the GI50 [1] was 23.3 µM, the TGI [1] was > 100 µM and the GI50 [2] was 35 µM. For the same compound, the TGI [2] was > 100 µM, the GI50 [3] was 15.5 µM and the TGI [3] was 54 µM. The GI50 [4] was 29.8 µM, the TGI [4] was 98.7 µM and the GI50 [5] was 22.1 µM. For the same compound, the TGI [5] was > 100 µM, the GI50 [6] was 16.8 µM and the TGI [6] was 59.1 µM. The GI50 [7] was 26.7 µM, the TGI [7] was 90.5 µM and the GI50 [8] was 31.3 µM. The TGI [8] was > 100 µM, the GI50 [9] was 15.6 µM and the TGI [9] was 34.7 µM. It also gave a GI50 [10] of 20.7 µM, a TGI [10] of 69.1 µM and a GI50 [11] of 32.3 µM. For the same compound, the TGI [11] was > 100 µM, the GI50 [12] was 19.3 µM and the TGI [12] was 44.9 µM. It also gave a GI50 [13] of 28.9 µM, a TGI [13] of 95.5 µM and a GI50 [14] of 14.1 µM. The TGI [14] was 31.4 µM, the GI50 [15] was 36.9 µM and the TGI [15] was > 100 µM. It also gave a GI50 [16] of 27.1 µM, a TGI [16] of 92.4 µM and a GI50 [17] of 34.7 µM. The TGI [17] was > 100 µM, the GI50 [18] was 19.3 µM and the TGI [18] was 47 µM. For the same compound, the GI50 [19] was 28.3 µM, the TGI [19] was 84.9 µM and the GI50 [20] was 13.7 µM. It also gave a TGI [20] of 44.2 µM, a GI50 [21] of 17 µM and a TGI [21] of 44.9 µM. For the same compound, the GI50 [22] was 37.6 µM, the TGI [22] was > 100 µM and the GI50 [23] was 22.6 µM. The TGI [23] was > 100 µM, the GI50 [24] was 32.7 µM and the TGI [24] was > 100 µM. For the same compound, the GI50 [25] was 12.6 µM, the TGI [25] was 31.8 µM and the GI50 [26] was 5.92 µM. The TGI [26] was 28.1 µM, the GI50 [27] was 15.5 µM and the TGI [27] was 47.4 µM. The GI50 [28] was 40.8 µM, the TGI [28] was > 100 µM and the GI50 [29] was 17.2 µM. For the same compound, the TGI [29] was 42.8 µM, the GI50 [30] was 25.9 µM and the TGI [30] was 72.9 µM. For the same compound, the GI50 [31] was 30.1 µM, the TGI [31] was > 100 µM and the GI50 [32] was 19.6 µM. The TGI [32] was 38.1 µM, the GI50 [33] was 18.9 µM and the TGI [33] was 60.6 µM. For the same compound, the GI50 [34] was 27.7 µM, the TGI [34] was > 100 µM and the GI50 [35] was 25.6 µM. For the same compound, the TGI [35] was > 100 µM, the GI50 [36] was 18 µM and the TGI [36] was 47.3 µM. The GI50 [37] was 20.2 µM, the TGI [37] was 69.2 µM and the GI50 [38] was 19.2 µM. The TGI [38] was 55.3 µM, the GI50 [39] was 20.9 µM and the TGI [39] was 52.8 µM. It also gave a GI50 [40] of 19.5 µM, a TGI [40] of 74.8 µM and a GI50 [41] of 19.5 µM. The TGI [41] was 70.9 µM, the GI50 [42] was 8.45 µM and the TGI [42] was 42.3 µM. The GI50 [43] was 26.9 µM, the TGI [43] was > 100 µM and the GI50 [44] was 22.1 µM. For the same compound, the TGI [44] was > 100 µM, the GI50 [45] was 23.1 µM and the TGI [45] was 52.5 µM. The GI50 [46] was 34 µM, the TGI [46] was > 100 µM and the GI50 [47] was 26 µM. For the same compound, the TGI [47] was 62.8 µM, the GI50 [48] was 35.6 µM and the TGI [48] was > 100 µM. For the same compound, the GI50 [49] was 27.8 µM, the TGI [49] was > 100 µM and the GI50 [50] was 19.5 µM. For the same compound, the TGI [50] was 60.1 µM.
With `C=C1CC2CC(O)CC(C1)C2` (stereo not drawn) the TGI [51] was > 100 µM, the TGI [2] was > 100 µM and the TGI [3] was > 100 µM. For the same compound, the TGI [4] was > 100 µM, the TGI [5] was > 100 µM and the TGI [6] was > 100 µM. The TGI [7] was > 100 µM, the TGI [8] was > 100 µM and the TGI [52] was > 100 µM. For the same compound, the TGI [9] was > 100 µM, the TGI [53] was > 100 µM and the TGI [10] was > 100 µM. The TGI [54] was > 100 µM, the TGI [11] was > 100 µM and the TGI [12] was > 100 µM. The TGI [13] was > 100 µM, the TGI [14] was > 100 µM and the TGI [15] was > 100 µM. The TGI [16] was > 100 µM, the TGI [17] was > 100 µM and the TGI [18] was > 100 µM. For the same compound, the TGI [19] was > 100 µM, the TGI [21] was > 100 µM and the TGI [22] was > 100 µM. For the same compound, the TGI [55] was > 100 µM, the TGI [23] was > 100 µM and the TGI [24] was > 100 µM. For the same compound, the TGI [25] was > 100 µM, the TGI [27] was > 100 µM and the TGI [28] was > 100 µM. The TGI [29] was > 100 µM, the TGI [30] was > 100 µM and the TGI [31] was > 100 µM. For the same compound, the TGI [32] was > 100 µM, the TGI [33] was > 100 µM and the TGI [56] was > 100 µM. For the same compound, the TGI [34] was > 100 µM, the TGI [36] was > 100 µM and the TGI [37] was > 100 µM. For the same compound, the TGI [38] was > 100 µM, the TGI [39] was > 100 µM and the TGI [40] was > 100 µM. The TGI [41] was > 100 µM, the TGI [57] was > 100 µM and the TGI [43] was > 100 µM. The TGI [44] was > 100 µM, the TGI [45] was > 100 µM and the TGI [46] was > 100 µM. The TGI [47] was > 100 µM, the TGI [48] was > 100 µM and the TGI [49] was > 100 µM. For the same compound, the TGI [58] was > 100 µM and the TGI [50] was > 100 µM.
